Assay results published in paper PMC12181291, “Production and biochemical characterization of Pleurotus ostreatus NRC 620 laccase and evaluation of its efficacy in apple juice clarification” (Scientific Reports, 2025).

Test system: T1, Pleurotus ostreatus NRC 620 laccase
T1 construct: gene pox2
Settings: pH 4.5; ABTS 0.025-3 mM; crude culture supernatant

## CCn1c(=NN=c2sc3cc(S(=O)(=O)O)ccc3n2CC)sc2cc(S(=O)(=O)O)ccc21 [ABTS, 2, 2´-azino-bis (3-ethylbenzothiazoline-6-sulphonic acid)]
  Km: 1.99 mM
